Assay results published in US20260232661A1, “Compositions and Uses Thereof” (Purposeful IKE, priority 2020, published 2026).
Several values for one entry are separate records, joined by “and”; a condition that tells them apart may be missing. Equal values may be shown once.

Assays:
Assay type in all cases: in vivo
[1] = tested on: Fmr1 KO mice; experiment: Novel Object Recognition (memory and learning); set-up: Mean Diff., N_WT-V vs. treated KO (NOR) / Mean 2, treated KO group (NOR) / Mean Diff., F_KO-V vs. F_KO treated (NOR) / Mean Diff., F_KO-V vs. N_KO treated (NOR) / Mean 2, F_KO treated group (NOR) / Mean 2, N_KO treated group (NOR): unit not given here; settings: for Significant? F_KO-V vs. F_KO treated (NOR) / Significant? F_KO-V vs. N_KO treated (NOR) / Significant? N_WT-V vs. treated KO (NOR): alpha 0.05; for Significant? F_KO-V vs. F_KO treated (NOR) / Summary, F_KO-V vs. F_KO treated (NOR) / Mean 2, F_KO treated group (NOR): doses as E46
Description: (§1) Fmr1 KO mice backcrossed to the FVB strain and WT littermates were used during experiments. TransnetXY Automated Genotyping (www.transnetyx.com/). TRANSNETYX, INC., 8110 Cordova Rd. Suite 119, Cordova, TN 38016, USA was used for genotyping. The animals were pretreated for 14 days. The active ingredients of Sumatriptan and Ergoloid were in a water carrier, whereas oxitriptan was in a methanol carrier.
(§2) The mice were housed in plastic cages (35×30×12 cm), 5 in each. The room temperature (21±2° C.), relative humidity (55±5%), a 12-h light-dark cycle (lights on 7 a.m.-7 p.m.) and air exchange (16 times per h) were automatically controlled. The animals had free access to commercial food pellets and water. Testing was conducted during the light phase. Ten mice per treatment group were used for the AGS experiments. Experiments were conducted in line with the requirements of the UK Animals (Scientific Procedures) Act, 1986.
(§3) All experiments were conducted with the experimenter blind to genotype and drug treatment. Separate investigators prepared and coded dosing solutions, allocated the mice to the study treatment groups, dosed the animals, and collected the Audiogenic Seizure data.
(§4) Behavior testing was conducted at 2 weeks. The behavioral tests were as follows: 1. Hyperactivity: Open field; 2. Stereotypy: Self-grooming; 3. Sociability: Three chamber partition test; 4. Memory and Learning: Novel Object Recognition; 5. Anxiety: hyponeophagia; and 6. Test of daily living: marble burying
For memory and learning, a novel object recognition (NOR) task was used to evaluate the rodents' ability to recognize a novel object in the environment. […] The task procedure consists of three phases: habituation, familiarization, and test phase (Antunes 2012).
(§5) The treatment of the mice with OX (Oxitriptan), SU (Sumatriptan), ER (Ergoloid mesylates, also referred to as ergoloid herein) were according to the matrix shown below in Table 1. […]

[2] = tested on: Fmr1 KO mice; experiment: Test of daily living (nesting; marble burying); settings: for Significant? WT-V vs. treated KO (Test of daily living) / Significant? KO-V vs. treated KO (Test of daily living) / Summary, WT-V vs. treated KO (Test of daily living): Dunnett's test; for Significant? WT-V vs. treated KO (Test of daily living) / Significant? KO-V vs. treated KO (Test of daily living): alpha 0.05; for Mean Diff., WT-V vs. treated KO (Test of daily living): mg/kg: Sumatriptan 20, Oxitriptan 40, Ergoloid 4, Ergoloid 2+Sumatriptan 10, Ergoloid 2+Oxitriptan 40
Description: as §1, §2, §3, §4
For test of daily living, nesting was assessed as nest building is an innate behavior in rodents, even when raised in laboratory settings. Synthetic and/or natural materials (such as twine, tissue, cotton, paper, and hay) are provided as a gauge of their overall well-being and as an ancillary assessment to predict the possible decline in cognition. Typically, changes in nesting behaviors, such as failure to create a nest, indicate a change in health or welfare. In addition, nesting behavior is sensitive to many environmental and physiological challenges, as well as many genetic mutations underlying pathological disease states (Gaskill 2013).
(§6) The treatment of the mice with OX (Oxitriptan), SU (Sumatriptan), ER (Ergoloid mesylates, also referred to as ergoloid herein) were according to the matrix shown below in Table 1.
(§7) The experimental procedures described above for Example 1 were used in the following tests, as well as the addition of two further behaviour tests as described below. An SSRI (selective serotonin re-uptake inhibitor) was co-dosed with the ergoloid mesylates and oxitriptan to assess the effect of the ergoloid mesylates and oxitriptan treatment on a subject already receiving SSRI treatment.
(§8) The treatment of the mice with OX (Oxitriptan), ER (Ergoloid mesylates) and FL (fluvoxamine) were according to the matrix shown below in Table 21. The triple combination involved dosing of 2 mg/kg ergoloid mesylates, 40 mg/kg oxitriptan and 40 mg/kg of fluvoxamine (the SSRI).

[3] = tested on: Fmr1 KO mice; experiment: Three chamber partition test (sociability); set-up: Mean Diff., N_WT-V vs. treated KO (Sociability) / Mean 2, treated KO group (Sociability) / Mean Diff., F_KO-V vs. F_KO treated (Sociability) / Mean Diff., F_KO-V vs. N_KO treated (Sociability) / Mean 2, F_KO treated group (Sociability) / Mean 2, N KO treated group (Sociability) / Mean 2, N_KO treated group (Sociability) / Data table Sociability, F_KO-Sumatriptan / Data table Sociability, N_KO-Sumatriptan / Data table Sociability, F_KO-Oxitriptan: unit not given here; settings: for Significant? F_KO-V vs. F_KO treated (Sociability) / Significant? F_KO-V vs. N_KO treated (Sociability) / Significant? N_WT-V vs. treated KO (Sociability) / Summary, N_WT-V vs. treated KO (Sociability): Dunnett's test; for Significant? F_KO-V vs. F_KO treated (Sociability) / Significant? F_KO-V vs. N_KO treated (Sociability) / Significant? N_WT-V vs. treated KO (Sociability): alpha 0.05; for Significant? F_KO-V vs. N_KO treated (Sociability) / Mean Diff., F_KO-V vs. N_KO treated (Sociability) / Mean Diff., N_WT-V vs. treated KO (Sociability): N_ groups; for Significant? N_WT-V vs. treated KO (Sociability) / Summary, N_WT-V vs. treated KO (Sociability) / Mean 2, treated KO group (Sociability): groups and doses as E21; for Mean Diff., F_KO-V vs. N_KO treated (Sociability): mg/kg: Sumatriptan 20, Oxitriptan 40, Ergoloid 4, Ergoloid 2+Oxitriptan 40; for Mean Diff., N_WT-V vs. treated KO (Sociability): mg/kg: Sumatriptan 20, Oxitriptan 40, Ergoloid 4, F_KO Ergoloid 2+Sumatriptan 10, N_KO Ergoloid 2+Oxitriptan 40; for Mean 2, treated KO group (Sociability): comparison against N_WT-V
Description: as §1, §2, §3, §4
For sociability a three chamber partition test was utilized. The three-chamber paradigm test known as Crawley's sociability and preference for social novelty protocol has previously been successfully employed to study social affiliation and social memory in several inbred and mutant mouse lines. The main principle of the test was based on the free choice by a subject mouse to spend time in any of three box's compartments during two experimental sessions, including indirect contact with one or two mice with which it was unfamiliar (Kaidanovich-Beilin 2011).
as §5

[4] = tested on: Fmr1 KO mice; experiment: Self-grooming (stereotypy); settings: Dunnett's test, alpha 0.05; doses as E31
Description: as §1, §2, §3
Behavior testing was conducted at 2 weeks. The behavioral tests were as follows: 1. Hyperactivity: Open field; 2. Stereotypy: Self-grooming; 3. […]
For stereotypy, self-grooming was assessed. […]

[5] = tested on: Fmr1 KO mice; experiment: Open field test (hyperactivity); settings: for Below threshold? WT-V vs. treated KO (Open Field) / Significant? KO-V vs. treated KO (Open Field): Dunnett's test, alpha 0.05; for Below threshold? WT-V vs. treated KO (Open Field): doses as E1; for Significant? KO-V vs. treated KO (Open Field): doses as E26
Description: as §1, §2, §3, §4
For hyperactivity, the open field test (OFT) is a common measure of exploratory behavior and general activity in both mice and rats, where both the quality and quantity of the activity can be measured. Principally, the open field (OF) is an enclosure, generally square, rectangular, or circular in shape with surrounding walls that prevent escape. The OFT is also commonly used as a mechanism to assess the sedative, toxic, or stimulant effects of compounds (Gould 2009).
as §6, §7, §8

[6] = tested on: Fmr1 KO mice; experiment: Hyponeophagia test (anxiety); settings: for Significant? WT-V vs. treated KO (Hyponeophagia) / Significant? KO-V vs. treated KO (Hyponeophagia): alpha 0.05; for Significant? KO-V vs. treated KO (Hyponeophagia): doses as E36; for Mean Diff., WT-V vs. treated KO (Hyponeophagia): KO mice, mg/kg: Sumatriptan 20, Oxitriptan 40, Ergoloid 4, Ergoloid 2+Sumatriptan 10, Ergoloid 2+Oxitriptan 40
Description: as §1, §2, §3, §4
For anxiety a hyponeophagia test was conducted. Mice and rats cannot vomit, due to the tightness of the cardiac sphincter of the stomach, so to overcome the problem of potential food toxicity they have evolved a strategy of first ingesting only very small amounts of novel substances. The amounts ingested then gradually increase until the animal has determined whether the substance is safe and nutritious. So the old rat-catchers would first put a palatable substance such as oatmeal, which was to be the vehicle for the toxin, in the infested area (Deacon 2011).
as §6, §7, §8

[7] = Dunnett's test, N_ groups, doses as E51
[8] = Dunnett's test, groups and doses as E16
[9] = F_ groups, mg/kg: Sumatriptan 20, Oxitriptan 40, Ergoloid 4, Ergoloid 2+Oxitriptan 40 (Column M)
[10] = F_, KO mice, Sumatriptan 20 mg/kg, individual animals
[11] = comparison against KO-V, doses as E41
[12] = comparison against WT-V, doses as E11
[13] = comparison against F_KO-V, doses as E61

Row | SMILES | Significant? F_KO-V vs. F_KO treated (NOR) ([1]; Dunnett's test, F_ groups) | Significant? F_KO-V vs. N_KO treated (NOR) [1, 7] | Significant? N_WT-V vs. treated KO (NOR) [1, 8] | Summary, F_KO-V vs. F_KO treated (NOR) ([1]; Dunnett's test, F_ groups) | Mean 2, F_KO treated group (NOR) ([1]; comparison against F_KO-V) | Significant? WT-V vs. treated KO (Test of daily living) ([2]; doses as E11) | Significant? KO-V vs. treated KO (Test of daily living) ([2]; doses as E41) | Summary, WT-V vs. treated KO (Test of daily living) ([2]; doses as E11) | Mean Diff., WT-V vs. treated KO (Test of daily living) ([2]; KO mice) | Mean 2, treated KO group (Test of daily living) [2, 11] | Mean 2, treated KO group (Test of daily living) [2, 12] | Significant? F_KO-V vs. F_KO treated (Sociability) ([3]; F_ groups, doses as E56) | Significant? F_KO-V vs. N_KO treated (Sociability) ([3]; doses as E61) | Significant? N_WT-V vs. treated KO (Sociability) [3] | Summary, N_WT-V vs. treated KO (Sociability) [3] | Mean Diff., F_KO-V vs. N_KO treated (Sociability) [3] | Mean Diff., N_WT-V vs. treated KO (Sociability) [3] | Mean 2, treated KO group (Sociability) [3] | Significant? KO-V vs. treated KO (Stereotypy) [4] | Below threshold? WT-V vs. treated KO (Open Field) [5] | other results
1 | CNS(=O)(=O)Cc1ccc2[nH]cc(CCN(C)C)c2c1 [Sumatriptan] | No | No | Yes | ns | 5.800 | No | Yes | ns | 0.1000 | 4.700 | 4.700 | Yes | Yes | No | ns | −16.80 | 0.9000 | 98.20 | Yes | Yes | Summary, F_KO-V vs. N_KO treated (NOR) [1, 7]: ns; Mean Diff., F_KO-V vs. F_KO treated (NOR) [1, 9]: −0.2000; Data table Novel Object Recognition, F_KO-Sumatriptan [1, 10]: 6; Mean Diff., F_KO-V vs. N_KO treated (NOR) ([1]; N_ groups, mg/kg: Sumatriptan 20, Oxitriptan 40, Ergoloid 4, Ergoloid 2+Oxitriptan 40): −0.7000; Mean Diff., N_WT-V vs. treated KO (NOR) ([1]; N_ groups, mg/kg: Sumatriptan 20, Oxitriptan 40, Ergoloid 4, F_KO Ergoloid 2+Sumatriptan 10, N_KO Ergoloid 2+Oxitriptan 40): 6.600; Mean 2, N_KO treated group (NOR) ([1]; comparison against F_KO-V, doses as E51): 7.300; Mean 2, treated KO group (NOR) ([1]; comparison against N_WT-V, groups and doses as E16): 7.300; Mean Diff., F_KO-V vs. F_KO treated (Sociability) [3, 9]: 19.40; Data table Sociability, F_KO-Sumatriptan [3, 10]: 61 (2×) and 64 and 65 (2×) and 60 (3×) and 63 (2×); Data table Sociability, N_KO-Sumatriptan ([3]; KO mice, Sumatriptan 20 mg/kg, individual animals): 99 and 97 (2×) and 103 and 98 and 90 and 102 and 100 and 95 and 101; Mean 2, F_KO treated group (Sociability) ([3]; comparison against F_KO-V, doses as E56): 62.20; Mean 2, N KO treated group (Sociability) [3, 13]: 98.2; Significant? KO-V vs. treated KO (Open Field) [5]: Yes; Mean Diff., KO-V vs. treated KO (Open Field) ([5]; KO mice, mg/kg: Sumatriptan 20, Oxitriptan 80, Ergoloid 4, Ergoloid 2+Oxitriptan 40): 846.8; Significant? WT-V vs. treated KO (Hyponeophagia) ([6]; Dunnett's test, doses as E6): Yes; Significant? KO-V vs. treated KO (Hyponeophagia) ([6]; Dunnett's test): Yes; Mean Diff., WT-V vs. treated KO (Hyponeophagia) [6]: −9.200
2 | N[C@@H](Cc1c[nH]c2ccc(O)cc12)C(=O)O [Oxitriptan] | No | Yes | Yes | ns | 5.636 | No | Yes | ns | −0.1000 | 4.900 | 4.900 | Yes | Yes | No | ns | −17.20 | 0.3000 | 98.80 | Yes | Yes | Mean Diff., KO-V vs. treated KO (Test of daily living) ([2]; KO mice, mg/kg: Sumatriptan 20, Oxitriptan 40, Ergoloid 4, Ergoloid 2+Oxitriptan 40): −3.700; Data table Sociability, F_KO-Oxitriptan ([3]; F_, KO mice, Oxitriptan 40 mg/kg, individual animals): 51; Mean 2, N_KO treated group (Sociability) [3, 13]: 95.80; Significant? KO-V vs. treated KO (Open Field) [5]: Yes; Mean Diff., WT-V vs. treated KO (Open Field) ([5]; KO mice, mg/kg: Sumatriptan 20, 5-HTP 80, EM 4, Ergoloid 2+Sumatriptan 10, Ergoloid 2+Oxitriptan 40): −512.4; Significant? WT-V vs. treated KO (Hyponeophagia) ([6]; Dunnett's test, doses as E6): No; Significant? KO-V vs. treated KO (Hyponeophagia) ([6]; Dunnett's test): Yes; Summary, WT-V vs. treated KO (Hyponeophagia) ([6]; Dunnett's test, doses as E6): ns; Mean Diff., WT-V vs. treated KO (Hyponeophagia) [6]: −0.7000
